{"source": "patent US20230348394A1", "about": "“COMPOSITIONS AND METHODS FOR TREATING MUSCULAR DYSTROPHIES” (The Regents of the University of California, priority 2020, published 2023)", "key": {"[1]": {"test_system": "alpha-dystroglycan (α-DG) at the cell surface", "test": "Cell surface protein biotinylation and immunoblot, C2C12 myotubes", "assay_type": "cell-based, murine", "conditions": "5 μM, 48 hours", "protocol": "(§1) Myotubes treated for 48 hrs were lysed using RIPA buffer (Thermo Fisher Scientific) containing Halt Protease Inhibitor Cocktail (Thermo Fisher Scientific). Cell lysates in RIPA buffer were rocked for 1 hr at 4° C. and centrifuged at 1,000 RPM for 30 mins at 4° C. The supernatant was collected, quantified for protein concentration using the DC protein assay (Bio-Rad), and normalized to 2 mg/ml in water and Laemmli sample buffer with a final concentration of 10% glycerol (Sigma-Aldrich), 5% beta-mercaptoethanol (Sigma-Aldrich), 3% sodium dodecyl sulfate (Sigma-Aldrich), and 0.05% bromophenol blue (Sigma-Aldrich). For SDS-PAGE, samples were heated to 95° C. for 2 mins before loading 40 μg onto 4-12% tris-glycine or bis-tris polyacrylamide gels (Novex), electrophoresed for 2 hrs at 100 volts at RT, and transferred to a nitrocellulose membrane for 2 hrs at 100 volts at 4° C. Ponceau S staining was performed to visualize protein loading and verify protein transfer. […] Autoradiography films were developed using a SRX-101A tabletop processor (Konica Minolta), scanned to a digital file, and analyzed by densitometry of bands using ImageJ version 1.51 s. […]"}, "SSPN protein": {"test_system": "SSPN protein", "test": "Sarcospan immunoblot of H2K mdx myotubes", "assay_type": "cell-based, murine", "conditions": "2.5 to 10 μM, 48 hours", "protocol": "as §1, with “(Sigma-Aldrich).” for “(Sigma-Aldrich). For SDS-PAGE, samples were heated to 95° C. for 2 mins before loading 40 μg onto 4-12% tris-glycine or bis-tris polyacrylamide gels (Novex), electrophoresed for 2 hrs at 100 volts at RT, and transferred to a nitrocellulose membrane for 2 hrs at 100 volts at 4° C. Ponceau S staining was performed to visualize protein loading and verify protein transfer.”\nAfter excluding compounds that were unstable in solution or that produced highly variable results, nine compounds remained. […] To determine if the increase in SSPN mRNA was also evident at the protein level, we treated mdx myotubes with 2.5 to 10 μM of OT-9, PC1-36, and PC1-42 and analyzed total protein lysates by immunoblotting with SSPN antibodies."}}, "data": [{"smiles": "CCN(CC)c1ccc2cc(C(=O)Nc3ccc(C(=O)N4CCCCCC4)cc3)c(=O)oc2c1", "note": "[OT-9]", "values": [{"measurement": "increase of core α-DG at the cell surface", "setting": "[1]", "result": 1.6, "unit": "fold"}, {"measurement": "increase of glycosylated α-DG at the cell surface", "setting": "[1]", "result": 1.8, "unit": "fold"}, {"measurement": "increase of SSPN protein levels", "setting": "SSPN protein", "result": 1.5, "unit": "fold"}]}]}
